The values below are quoted from earlier work in patent US8318203B2, “Form of administration of racecadotril” (Bioprojet, priority 2006, dated 2012).

The conditions of data set [1]: racecadotrilate, active metabolite of the pro-drug racecadotril.

For `O=C(O)CNC(=O)C(CS)Cc1ccccc1` (racemic) [racecadotrilate], the half-life result in data set [1] is “three to four”. Consider `CC(=O)SCC(Cc1ccccc1)C(=O)NCC(=O)OCc1ccccc1` (racemic) [racecadotril, benzyl (RS)-2-[[2-[(acetylsulphanyl)methyl]-3-phenylpropanoyl]amino]acetate], for which the solubility in water entry is “insoluble in water”.
